Target: T1, L1 transport system (large neutral amino acid carrier, L1-system carrier) (Rattus norvegicus, UniProt Q63016)
T1 construct: functionality of their endogenous transporters such as the L1-system carrier; endogenous in cells; host or cells: rat primary cerebrovascular (brain microcapillary) endothelial cells, RBEC
Assay: Competitive binding assay to the brain L1 transport system (L-[U-14C]phenylalanine on rat primary cerebrovascular endothelial cells)
Settings: 10^−4 M
Method: Compound samples in PBS (without Ca^+2, Mg^+2)-glucose 30 mM-HEPES 10 mM—DMSO 1% as prepared in Example 1 were thawed and left for at least 30 minutes at 20-23° C. before preparation of the following sub-dilutions for the competitive binding assay: • 200 μL of the stock solution were added to 800 μL PBS (without Ca^+2, Mg^+2)-Glucose-HEPES-1% DMSO (PBSD-1) [diluted 1:5 for a final 1:5 dilution] • 100 μL (1/5 dilution above) were added to 900 μL PBSD-1 [diluted 1:10 for a final 1:50 dilution] • 100 μL (1/50 dilution above) were added to 900 μL PBSD-1 [diluted 1:10 for a final 1:500 dilution]
These sub-dilutions were used immediately or stored overnight at 4° C. before the competitive binding assay. A volume of 45 μL of each of the compound dilutions (1:5, 1:50, 1:500) in PBSD-1 was added to the appropriate wells in the dilution plate.
Brains from sixty 24-day-old rats were dissected individually on a sterile lint moistened with ice cold Hanks' balanced salt solution (Gibco BRL, Grand Island, N.Y.) containing 10 mM HEPES (medium 1) supplemented with 0.1% BSA. Cerebellum, striatum, optic nerves, and brain stem (white matter) were removed. After a mid-sagittal section of the brain, the meninges and leptomeningeal debris were removed by rolling a sterile dry cotton swab on the cortices. (Ichikawa N, Naora K, Hirano H, Hashimoto M, Masumura S, and Iwamoto K (1996). Isolation and primary culture of rat cerebral microvascular endothelial cells for studying drug transport in vitro. J Pharmacol Toxicol Meth 36: 45-52.). Clean cortices were minced in pieces of ≈2 mm^3 in 15 mL of ice-cold medium 1-0.1% BSA. The preparation was divided into 4 sterile pre-weighed tubes and centrifuged at 330× g at 20-25° C. for 5 min. Tubes were weighed and pre-warmed (37° C.) and medium 1 with 0.5% BSA containing 0.3% collagenase and 10 μg/mL DNAse 1 (Roche, Laval, Quebec, Canada) were added to each tube (1 mL/g of tissue).
The brain-collagenase mixture was vigorously agitated in a water bath at 37° C. for 90 min. Fifteen min before the end of the digestion, the tissue was homogenized using a 10-mL pipette until a creamy mixture was obtained (≈20 aspirations). Cells were washed by adding medium 1 with 0.1% BSA to the homogenate (26 mL/tube) and centrifuged at 100× g at 20-25° C. for 7 min. This washing step was repeated 3 more times, once for 5 min and twice for 3 min. Each pellet was re-suspended in 25 mL of a 15% dextran solution prepared in medium 1 with 0.1% BSA and centrifuged at 3200× g at 4° C. for 25 min to isolate vessels from neural tissue and dextran layers. Vascular pellets were re-suspended in 5 mL Ca^++—Mg^++-free-medium 1 with 0.1% BSA (medium 2) at 20-25° C. and transferred in a 50-mL tube. Remaining vessels were collected by rinsing the tubes and pooling the rinsing suspension. (Rupnick M A, Carey A, and Williams S K (1988). Phenotypic diversity in cultured cerebral microvascular endothelial cells in vitro. Cell Develop Biol 24: 435-444.)
The vascular preparation was filtered and rinsed (20 mL of medium 2) through a sterile 355-μm mesh. The 355-μm filtrate was sequentially filtered twice (20 mL of medium 2) through sterile 112-μm meshes and rinsed (Stanimirovic D B, Wong J, Ball R, and Durkin J P (1995). Free radical-induced endothelial membrane dysfunction at the site of the blood-brain barrier: relationship between lipid peroxidation, Na,K-ATPase activity, and ^51Cr release. Neurochem Res 20:1417-1427.) and the latter filtrate was filtered and rinsed through a sterile 20-μm mesh. A final step of filtration and rinse was repeated through a double layer of 20-μm meshes. All 20-μm meshes, which retained the microcapillaries, were then transferred into a 50-mL tube containing 20 mL of a 0.1% collagenase/dispase (Roche) solution in medium 2 supplemented with 10 μg/mL DNAse 1 and 0.147 μg/mL tosyl-lysine-chloromethyl-ketone (Sigma Chemical Co., Oakville, Ontario, Canada) (medium 3).

T1 sequence (Q63016 whole entry): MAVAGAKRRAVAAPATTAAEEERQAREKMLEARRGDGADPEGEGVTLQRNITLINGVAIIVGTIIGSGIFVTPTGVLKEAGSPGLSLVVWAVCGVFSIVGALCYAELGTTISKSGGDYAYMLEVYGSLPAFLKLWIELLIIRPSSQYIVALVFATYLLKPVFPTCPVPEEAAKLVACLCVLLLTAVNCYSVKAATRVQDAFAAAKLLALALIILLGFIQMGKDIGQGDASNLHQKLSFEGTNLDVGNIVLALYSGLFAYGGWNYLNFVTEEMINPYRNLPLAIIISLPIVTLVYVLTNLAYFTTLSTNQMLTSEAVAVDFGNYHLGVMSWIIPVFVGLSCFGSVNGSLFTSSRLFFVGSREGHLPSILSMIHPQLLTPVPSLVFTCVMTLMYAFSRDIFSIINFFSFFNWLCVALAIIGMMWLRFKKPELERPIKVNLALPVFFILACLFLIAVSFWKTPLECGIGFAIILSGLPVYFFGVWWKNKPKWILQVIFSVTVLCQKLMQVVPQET
T1 sequence (Q794F9 whole entry partner): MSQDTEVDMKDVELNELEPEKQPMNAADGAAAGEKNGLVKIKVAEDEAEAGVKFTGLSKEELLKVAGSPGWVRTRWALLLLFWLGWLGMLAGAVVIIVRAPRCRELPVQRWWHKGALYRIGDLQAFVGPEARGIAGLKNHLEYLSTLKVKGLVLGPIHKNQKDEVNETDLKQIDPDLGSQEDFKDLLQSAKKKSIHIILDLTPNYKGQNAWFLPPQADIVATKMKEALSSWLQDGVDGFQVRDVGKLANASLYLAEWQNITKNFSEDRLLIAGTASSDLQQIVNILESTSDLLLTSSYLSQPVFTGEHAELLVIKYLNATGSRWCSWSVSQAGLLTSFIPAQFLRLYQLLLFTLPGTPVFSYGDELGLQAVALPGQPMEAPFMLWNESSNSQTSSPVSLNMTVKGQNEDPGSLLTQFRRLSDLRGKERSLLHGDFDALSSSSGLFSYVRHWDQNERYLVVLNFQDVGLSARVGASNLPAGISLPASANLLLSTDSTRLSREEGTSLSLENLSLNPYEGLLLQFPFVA

SMILES | Comparison with the Binding of Phenylalanine
N[C@@H](Cc1ccccc1)C(=O)NC(Cc1cccc(CSc2nnnn2-c2ccc(O)cc2)c1)C(=O)O (stereo partly drawn) [Compound 50] | 0 (X < 0 Rank 0)
O=C(Nc1ccc(-c2ccccc2)cc1)NC(Cc1cccc(CSc2nnnn2-c2ccc(O)cc2)c1)C(=O)O (stereo not drawn) [Compound 51] | 0 (X < 0 Rank 0)
O=C(Nc1ccc(-c2ccccc2)cc1)NC(Cc1cccc(CSc2ncc[nH]2)c1)C(=O)O (stereo not drawn) [Compound 52] | 0 (X < 0 Rank 0)
N[C@@H](Cc1ccccc1)C(=O)NC(Cc1cccc(CSc2nnnn2-c2ccccc2)c1)C(=O)O (stereo partly drawn) [Compound 53] | 0 (X < 0 Rank 0)
O=C(Nc1ccc(-c2ccccc2)cc1)NC(Cc1cccc(CSc2nnnn2-c2ccccc2)c1)C(=O)O (stereo not drawn) [Compound 54] | 1 (0 < X < 10 Rank 1)
NC(=O)C(Cc1cccc(CSc2nnc(-c3ccncc3)o2)c1)NC(=O)NC(c1ccccc1)c1ccccc1 (stereo not drawn) [Compound 55] | 1 (0 < X < 10 Rank 1)
O=C(NC(Cc1cccc(CSc2nnc(-c3ccccc3)[nH]2)c1)C(=O)O)NC(c1ccccc1)c1ccccc1 (stereo not drawn) [Compound 57] | 3 (X > 20 Rank 3)
O=C(Nc1ccc(-c2ccccc2)cc1)NC(Cc1cccc(CSc2cncc3c(C(F)(F)F)cccc23)n1)C(=O)O (stereo not drawn) [Compound 61] | 2 (10 < X < 20 Rank 2)
O=C(Nc1ccc(-c2ccccc2)cc1)NC(Cc1cccc(CSc2nc3ccccc3[nH]2)n1)C(=O)O (stereo not drawn) [Compound 62] | 0 (X < 0 Rank 0)
O=C(Nc1ccc(-c2ccccc2)cc1)NC(Cc1cccc(CSc2nc3ccccc3o2)n1)C(=O)O (stereo not drawn) [Compound 63] | 0 (X < 0 Rank 0)
O=C(O)C(Cc1cccc(CSc2ncnc3[nH]ncc23)n1)NS(=O)(=O)c1ccc(F)cc1 (stereo not drawn) [Compound 64] | 0 (X < 0 Rank 0)
NC(Cc1cccc(CSc2ccnc3cc(C(F)(F)F)ccc23)c1)C(=O)O (stereo not drawn) [Compound 70] | 0 (X < 0 Rank 0)

Same assay, conditions: 10^−5 M

SMILES | Comparison with the Binding of Phenylalanine
N[C@@H](Cc1ccccc1)C(=O)NC(Cc1cccc(CSc2nnnn2-c2ccc(O)cc2)c1)C(=O)O (stereo partly drawn) [Compound 50] | 2 (10 < X < 20 Rank 2)
O=C(Nc1ccc(-c2ccccc2)cc1)NC(Cc1cccc(CSc2nnnn2-c2ccc(O)cc2)c1)C(=O)O (stereo not drawn) [Compound 51] | 3 (X > 20 Rank 3)
O=C(Nc1ccc(-c2ccccc2)cc1)NC(Cc1cccc(CSc2ncc[nH]2)c1)C(=O)O (stereo not drawn) [Compound 52] | 0 (X < 0 Rank 0)
N[C@@H](Cc1ccccc1)C(=O)NC(Cc1cccc(CSc2nnnn2-c2ccccc2)c1)C(=O)O (stereo partly drawn) [Compound 53] | 2 (10 < X < 20 Rank 2)
O=C(Nc1ccc(-c2ccccc2)cc1)NC(Cc1cccc(CSc2nnnn2-c2ccccc2)c1)C(=O)O (stereo not drawn) [Compound 54] | 3 (X > 20 Rank 3)
NC(=O)C(Cc1cccc(CSc2nnc(-c3ccncc3)o2)c1)NC(=O)NC(c1ccccc1)c1ccccc1 (stereo not drawn) [Compound 55] | 3 (X > 20 Rank 3)
O=C(NC(Cc1cccc(CSc2nnc(-c3ccccc3)[nH]2)c1)C(=O)O)NC(c1ccccc1)c1ccccc1 (stereo not drawn) [Compound 57] | 3 (X > 20 Rank 3)
O=C(Nc1ccc(-c2ccccc2)cc1)NC(Cc1cccc(CSc2cncc3c(C(F)(F)F)cccc23)n1)C(=O)O (stereo not drawn) [Compound 61] | 0 (X < 0 Rank 0)
O=C(Nc1ccc(-c2ccccc2)cc1)NC(Cc1cccc(CSc2nc3ccccc3[nH]2)n1)C(=O)O (stereo not drawn) [Compound 62] | 0 (X < 0 Rank 0)
O=C(Nc1ccc(-c2ccccc2)cc1)NC(Cc1cccc(CSc2nc3ccccc3o2)n1)C(=O)O (stereo not drawn) [Compound 63] | 0 (X < 0 Rank 0)
O=C(O)C(Cc1cccc(CSc2ncnc3[nH]ncc23)n1)NS(=O)(=O)c1ccc(F)cc1 (stereo not drawn) [Compound 64] | 1 (0 < X < 10 Rank 1)
NC(Cc1cccc(CSc2ccnc3cc(C(F)(F)F)ccc23)c1)C(=O)O (stereo not drawn) [Compound 70] | 1 (0 < X < 10 Rank 1)

Same assay, conditions: 10^−6 M

SMILES | Comparison with the Binding of Phenylalanine
N[C@@H](Cc1ccccc1)C(=O)NC(Cc1cccc(CSc2nnnn2-c2ccc(O)cc2)c1)C(=O)O (stereo partly drawn) [Compound 50] | 2 (10 < X < 20 Rank 2)
O=C(Nc1ccc(-c2ccccc2)cc1)NC(Cc1cccc(CSc2nnnn2-c2ccc(O)cc2)c1)C(=O)O (stereo not drawn) [Compound 51] | 2 (10 < X < 20 Rank 2)
O=C(Nc1ccc(-c2ccccc2)cc1)NC(Cc1cccc(CSc2ncc[nH]2)c1)C(=O)O (stereo not drawn) [Compound 52] | 1 (0 < X < 10 Rank 1)
N[C@@H](Cc1ccccc1)C(=O)NC(Cc1cccc(CSc2nnnn2-c2ccccc2)c1)C(=O)O (stereo partly drawn) [Compound 53] | 2 (10 < X < 20 Rank 2)
O=C(Nc1ccc(-c2ccccc2)cc1)NC(Cc1cccc(CSc2nnnn2-c2ccccc2)c1)C(=O)O (stereo not drawn) [Compound 54] | 2 (10 < X < 20 Rank 2)
NC(=O)C(Cc1cccc(CSc2nnc(-c3ccncc3)o2)c1)NC(=O)NC(c1ccccc1)c1ccccc1 (stereo not drawn) [Compound 55] | 2 (10 < X < 20 Rank 2)
O=C(NC(Cc1cccc(CSc2nnc(-c3ccccc3)[nH]2)c1)C(=O)O)NC(c1ccccc1)c1ccccc1 (stereo not drawn) [Compound 57] | 3 (X > 20 Rank 3)
O=C(Nc1ccc(-c2ccccc2)cc1)NC(Cc1cccc(CSc2cncc3c(C(F)(F)F)cccc23)n1)C(=O)O (stereo not drawn) [Compound 61] | 2 (10 < X < 20 Rank 2)
O=C(Nc1ccc(-c2ccccc2)cc1)NC(Cc1cccc(CSc2nc3ccccc3[nH]2)n1)C(=O)O (stereo not drawn) [Compound 62] | 3 (X > 20 Rank 3)
O=C(Nc1ccc(-c2ccccc2)cc1)NC(Cc1cccc(CSc2nc3ccccc3o2)n1)C(=O)O (stereo not drawn) [Compound 63] | 1 (0 < X < 10 Rank 1)
O=C(O)C(Cc1cccc(CSc2ncnc3[nH]ncc23)n1)NS(=O)(=O)c1ccc(F)cc1 (stereo not drawn) [Compound 64] | 0 (X < 0 Rank 0)
NC(Cc1cccc(CSc2ccnc3cc(C(F)(F)F)ccc23)c1)C(=O)O (stereo not drawn) [Compound 70] | 0 (X < 0 Rank 0)
